What all share (type): in vivo
Assay [1] has as its system Western Flower Thrips (Frankliniella occidentalis (Pergande)). Nature of the assay: Test G: control of Western Flower Thrips on Soleil bean plant, contact and/or systemic. The conditions noted are these: sprayed at 10 ppm; 6 days. Here is the method: (§1) Test Compounds were formulated using a solution containing 10% acetone, 90% water and 300 ppm Activator 90® non-ionic surfactant (Loveland Products, Loveland, Colo., USA). The formulated Compounds were applied in 1 mL of liquid through an atomizer nozzle positioned 1.27 cm (0.5 inches) above the top of each test unit. Test Compounds were sprayed at the rates indicated, and each test was replicated three times.
For evaluating control of the Western Flower Thrips (Frankliniella occidentalis (Pergande)) through contact and/or systemic means, the test unit consisted of a small open container with a 5-7-day-old Soleil bean plant inside.
Test Compounds were formulated and sprayed at 250, 50, 10 and 2 ppm. After spraying, the test units were allowed to dry for 1 hour, and then ˜60 thrips (adults and nymphs) were added to each unit. A black, screened cap was placed on top, and the test units were held for 6 days at 25° C. and 45-55% relative humidity. Each test unit was then visually assessed for plant damage and insect mortality.

The subject of assay [2] is potato leafhopper (Empoasca fabae (Harris)). Nature of the assay: Test C: control of potato leafhopper on Soleil bean plant, contact and/or systemic. The conditions noted are these: 144 h. How it is done: as §1
For evaluating control of potato leafhopper (Empoasca fabae (Harris)) through contact and/or systemic means, the test unit consisted of a small open container with a 5-6-day-old Soleil bean plant (primary leaves emerged) inside. White sand was added to the top of the soil, and one of the primary leaves was excised prior to application of the test Compound.
Test Compounds were formulated and sprayed at 250, 50 and 10 ppm. After spraying of the formulated test Compound, the test units were allowed to dry for 1 hour before they were post-infested with 5 potato leafhoppers (18-to-21-day-old adults). A black, screened cap was placed on the top of the test unit, and the test units were held for 6 days in a growth chamber at 20° C. and 70% relative humidity. Each test unit was then visually assessed for insect mortality.

The test system of assay [3] is cotton melon aphid (Aphis gossypii (Glover)). As to the kind of experiment: Test E: control of cotton melon aphid on okra plant, contact and/or systemic. The conditions noted are these: 144 h. Here is the method:
as §1
For evaluating control of cotton melon aphid (Aphis gossypii (Glover)) through contact and/or systemic means, the test unit consisted of a small open container with a 5-day-old okra plant inside. This was pre-infested with 30-40 insects on a piece of leaf according to the cut-leaf method, and the soil of the test unit was covered with a layer of sand.
Test Compounds were formulated and sprayed at 250, 50 and 10 ppm. After spraying, the test units were maintained in a growth chamber for 6 days at 19° C. and 70% relative humidity. Each test unit was then visually assessed for insect mortality.

The test system of assay [4] is green peach aphid (Myzus persicae (Sulzer)). As to the kind of experiment: Test D: control of green peach aphid on radish plant, contact and/or systemic. The conditions noted are these: 144 h. How it is done:
as §1
For evaluating control of green peach aphid (Myzus persicae (Sulzer)) through contact and/or systemic means, the test unit consisted of a small open container with a 12-15-day-old radish plant inside. This was pre-infested by placing on a leaf of the test plant 30-40 aphids on a piece of leaf excised from a culture plant (cut-leaf method). The aphids moved onto the test plant as the leaf piece desiccated. After pre-infestation, the soil of the test unit was covered with a layer of sand.
Test Compounds were formulated and sprayed at 250 and 50 ppm. After spraying of the formulated test Compound, each test unit was allowed to dry for 1 hour and then a black, screened cap was placed on top. The test units were held for 6 days in a growth chamber at 19-21° C. and 50-70% relative humidity. Each test unit was then visually assessed for insect mortality.

Assay [5] deals with beet army worm [Spodoptera exigua (Hübner)]. As to the kind of experiment: Test H: control of beet armyworm on treated soybean leaf pieces. The conditions noted are these: 96 h. How it is done:
(§2) For evaluating control of beet army worm [Spodoptera exigua (Hübner)], corn earworm [Helicoverpa zea (Boddie)], and cabbage looper [Trichoplusia ni (Hübner)], the test unit consisted of 4-inch diameter pots with 3-4 week old soybean (for S. exigua) or cotton (for H. zea and T. ni) plants inside. Plants were treated with test Compound sprayed to runoff using a hand-held spray nozzle. Test Compounds were formulated and sprayed at 5 rates. Treated plants dried for 1 hour. Leaves of treated plants were cut into pieces (approximately 4×3 cm), and pieces were placed in cells of plastic trays that each contained agar to maintain humidity. Each cell was infested with a single second-instar larva which represented a separate replicate. Each rate was represented by 16-24 larvae. Cells were sealed with lids. Trays were held for 4 days in a growth chamber with a 16:8-hour (Light:Dark) cycle at 25° C. and 70% relative humidity.
(§3) Treatments were evaluated by counting the number of live and dead larvae and by visually estimating the percentage of feeding on plant material using a 0-10 rating scale, corresponding to 10% increases from 0-100% feeding.

Assay [6] concerns corn earworm [Helicoverpa zea (Boddie)]. As to the kind of experiment: Test H: control of corn earworm on treated cotton leaf pieces. The conditions noted are these: 96 h. Here is the method:
as §2, §3

The test system of assay [7] is cabbage looper [Trichoplusia ni (Hübner)]. Nature of the assay: Test H: control of cabbage looper on treated cotton leaf pieces. The conditions noted are these: 96 h. Here is the method:
as §2, §3

The results in this text go back to patent US20210309652A1, “ISOXAZOLINE COMPOUNDS FOR CONTROLLING INVERTEBRATE PESTS” (priority 2018, published 2021).

Some results are limits rather than exact numbers.

`CSCCNC(=O)c1ccc(C2=NOC(c3cc(Cl)c(F)c(Cl)c3)(C(F)(F)F)C2)c2ccoc12` (centres unmarked) [Compound 1]: the “control efficacy: plant damage (30% or less plant damage and/or 100% mortality)” value in assay [1] is recorded as no more than 30%.
Turning to `O=C(NCc1ncccn1)c1ccc(C2=NOC(c3cc(Cl)c(F)c(Cl)c3)(C(F)(F)F)C2)c2ccsc12` (centres unmarked) [Compound 20, 4-[5-(3,5-dichloro-4-fluorophenyl)-4,5-dihydro-5-(trifluoromethyl)-3-isoxazolyl]-N-(2-pyrimidinylmethyl)benzo[b]thiophene-7-carboxamide], the mortality – broadly, the share of the test organisms that died – at 10 ppm in assay [2] was no less than 80%. The mortality at 50 ppm in assay [2], in assay [3] and in assay [4] was no less than 80% throughout.
As to `O=C(NC1CS(=O)(=O)C1)c1ccc(C2=NOC(c3cc(Cl)c(F)c(Cl)c3)(C(F)(F)F)C2)c2ccoc12` (centres unmarked) [Compound 56, 4-[5-(3,5-dichloro-4-fluorophenyl)-4,5-dihydro-5-(trifluoromethyl)-3-isoxazolyl]-N-(1,1-dioxido-3-thietanyl)-7-benzofurancarboxamide], the mortality at 10 ppm in assay [2], in assay [5] and in assay [6] was no less than 80% each time. Also, the mortality at 1 ppm in assay [5] and in assay [6] was no less than 80% in each case.
Turning to `CC(=O)NCc1ccc(C2=NOC(c3cc(Cl)c(F)c(Cl)c3)(C(F)(F)F)C2)c2ccoc12` (centres unmarked) [Compound 83, N-[[4-[5-(3,5-dichloro-4-fluorophenyl)-4,5-dihydro-5-(trifluoromethyl)-3-isoxazolyl]-7-benzofuranyl]methyl]acetamide], the mortality at 10 ppm in assay [2], in assay [3] and in assay [4] was no less than 80% each time. For the same molecule, the mortality at 1 ppm in assay [5] and in assay [6] was no less than 80% each time.
`O=C(NC1C[S+]([O-])C1)c1ccc(C2=NOC(c3cc(Cl)c(F)c(Cl)c3)(C(F)(F)F)C2)c2ccoc12` (single isomer, unassigned) [Compound 57, 4-(5-(3,5-dichloro-4-fluorophenyl)-5-(trifluoromethyl)-4,5-dihydroisoxazol-3-yl)-N-(1-oxidothietan-3-yl)benzofuran-7-carboxamide]: the mortality at 10 ppm in assay [2], in assay [3], in assay [4], in assay [5] and in assay [6] was no less than 80% in each case. In addition, the mortality at 1 ppm in assay [5] and in assay [6] was no less than 80% each time.
`CC(=O)NCc1ccc(C2=NOC(c3cc(Cl)cc(Cl)c3)(C(F)(F)F)C2)c2ccoc12` (centres unmarked) [Compound 79, N-[[4-[5-(3,5-dichlorophenyl)-5-(trifluoromethyl)-4H-1,2-oxazol-3-yl]-1-benzofuran-7-yl]methyl]acetamide]: the mortality at 10 ppm in assay [2] and in assay [3] was no less than 80% each time. Besides, the mortality at 1 ppm in assay [6] is no less than 80%.
Turning to `O=C(NC1CSC1)c1ccc(C2=NOC(c3cc(Cl)c(F)c(Cl)c3)(C(F)(F)F)C2)c2ccoc12` (centres unmarked) [Compound 55, 4-(5-(3,5-dichloro-4-fluorophenyl)-5-(trifluoromethyl)-4,5-dihydroisoxazol-3-yl)-N-(thietan-3-yl)benzofuran-7-carboxamide], the mortality at 10 ppm in assay [2], in assay [3] and in assay [4] was no less than 80% throughout.
Take `C[C@H](NC(=O)c1ccc(C2=NOC(c3cc(Cl)cc(Cl)c3)(C(F)(F)F)C2)c2sccc12)C(N)=O` (stereo partly drawn) [Compound 101, N-[(1S)-2-amino-1-methyl-2-oxo-ethyl]-7-[5-(3,5-dichlorophenyl)-5-(trifluoromethyl)-4H-isoxazol-3-yl]benzothiophene-4-carboxamide]: the mortality at 10 ppm in assay [2], in assay [7], in assay [5] and in assay [6] was no less than 80% throughout. For the same molecule, the mortality at 1 ppm in assay [7], in assay [5] and in assay [6] was no less than 80% throughout.
